Test results taken from patent US6903130B1, “Pyrrolidineacetamide derivative alone or in combination for treatment of cns disorders” (UCB S.A., priority 1999, dated 2005).
Read-outs that look alike come from different tables or passages of the source.

Experiments:
sound-sensitive mice [1] = assay: Audiogenic seizure testing, protection against clonic convulsions; assay type: in vivo, mouse; conditions: for ED50: Mus musculus, ip, read-out: ED50, protection against audiogenic-induced clonic convulsions
Text: The purpose of this study was to evaluate the effect of levetiracetam on the anticonvulsivant potency of valproate in sound sensitive mice, a genetic animal model with reflex seizures. In this model of generalized epilepsy, seizures can be evoked without electrical or chemical stimulation and seizure types, at least in part, are similar in their clinical phenomenology to seizures occurring in man (Löscher W. & Schmidt D., Epilepsy Res. (1988), 2, 145-181; Buchhalter J. R., Epilepsia (1993), 34, S31-S41).
The experimental design consisted of one group receiving vehicles, another group receiving levetiracetam alone at a dose of 5.5 mg/kg and the other groups receiving different doses of valproate alone or in combination with levetiracetam. Levetiracetam alone was also tested. […] Levetiracetam and sodium valproate were both dissolved in 0.9% saline solution, to give solutions of pH 6.4 and 6.2, respectively.
The proportion of mice protected against clonic convulsions was calculated and used as the end point for the anticonvulsant activity.
Methods used for calculation and statistical analysis are described hereafter: • A response to drug treatment was expressed as the proportion of animals protected against induced convulsions, or showing an impairment of the rotarod performance, at each individual dose. […] From these formulations, the dose of valproate, considered as expected value, that should be associated to a constant dose of levetiracetam in order to afford 50% of protection, may be calculated as: [formula] for the additive model [formula] for the independent model.
These calculated doses (Vm50 expected) may then be compared to the observed doses of valproate which, in combination with a constant dose of levetiracetam, induce an effect corresponding to 50% protection (Vm50 observed). […]

healthy volunteers = assay: Clinical studies, tolerability in healthy volunteers; assay type: in vivo, human
sound-sensitive mice [2] = assay: Rotarod test in sound-sensitive mice
[3] = levetiracetam 5.5 mg/kg i.p. alone, inferred from dose-response relation

Compound | ED50 (sound-sensitive mice [1]) [mg/kg] | animals protected against audiogenic-induced clonic convulsions (sound-sensitive mice [1]; [3]) [%] | tolerability (in words) (healthy volunteers; repeated doses 1500 mg/day for 14 days) | tolerability (in words) (healthy volunteers; single dose) | ED50 (TD50), impairment of rotarod performance (sound-sensitive mice [2]; compound alone, i.p., sound-sensitive mice) [mg/kg] | animals showing an impairment of the rotarod performance (sound-sensitive mice [2]; [3]) [%] | ED50 (sound-sensitive mice [1]; compound alone, i.p., LOGIT-LOG DOSE regression) [mg/kg] | Impairment in the performance within the rotarod test (sound-sensitive mice [2]; valproate 122 mg/kg + saline (treatment protecting 50% of the mice)) [%]
CC[C@@H](C(N)=O)N1CCCC1=O [Levetiracetam, (S)-(−)α-ethyl-2-oxo-1-pyrrolidineacetamide] | 10 | 20 | well tolerated | well tolerated | 360.7 | 4 | – | –
CCCC(CCC)C(=O)[O-].[Na+] [Valproate, sodium valproate] | – | – | – | – | – | – | 122 | 30
